Experimental findings from patent US20240252506A1 (Hoffmann-La Roche Inc., priority 2021, published 2024) are described below.

As usually defined, the MIC is the lowest concentration found to suppress growth.

≈ marks a conversion by molar mass, not a printed value.

This experiment has as its system Escherichia coli ATCC 25922. Briefly: Minimal Inhibitory Concentration (MIC) determination, broth microdilution (CLSI M07-A10). The class given is cell-based. Particulars: Escherichia coli, ATCC25922, strain Escherichia coli ATCC 25922, 18-24 hours at 35±2° C., lowest concentration for complete growth inhibition (no visible growth), read-out: Escherichia coli growth inhibition MIC. The procedure, abridged:
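MIC read visually as the lowest concentration with complete growth inhibition after 18-24 h at 35±2° C, ambient air. Method follows CLSI M07-A10 broth microdilution, two-fold compound series, inoculum standardized to 0.5 McFarland then diluted 1:200.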
With `O=C1COc2ncc(N3CC4(CCN(CC5Cc6c(c(F)c7[nH]c(C89CC(CN8)C9)nc7c6F)C5)CC4)OC3=O)nc2N1` [Example 34, 6-[8-[[2-(2-azabicyclo[2.1.1]hexan-1-yl)-4,8-difluoro-3,5,6,7-tetrahydrocyclopenta[f]benzimidazol-6-yl]methyl]-2-oxo-1-oxa-3,8-diazaspiro[4.5]decan-3-yl]-4H-pyrazino[2,3-b][1,4]oxazin-3-one], the MIC turned out to be 0.25 µg/mL (≈ 0.422 µM).
The value for `CNCC(=O)Nc1nc2c(F)c3c(c(F)c2[nH]1)CC(CN1CCC2(CC1)CN(c1cnc4c(n1)NC(=O)CO4)C(=O)O2)C3` [Example 35, N-[4,8-difluoro-6-[[2-oxo-3-(3-oxo-4H-pyrazino[2,3-b][1,4]oxazin-6-yl)-1-oxa-3,8-diazaspiro[4.5]decan-8-yl]methyl]-3,5,6,7-tetrahydrocyclopenta[f]benzimidazol-2-yl]-2-(methylamino)acetamide] was 0.125 µg/mL (≈ 0.209 µM); that for `C[C@H](O)[C@@H](N)c1nc2c(F)c3c(c(F)c2[nH]1)CC(CN1CCC2(CC1)CN(c1cnc4c(n1)NC(=O)CO4)C(=O)O2)C3` [Example 36, 6-[8-[[2-[(1S,2S)-1-amino-2-hydroxy-propyl]-4,8-difluoro-3,5,6,7-tetrahydrocyclopenta[f]benzimidazol-6-yl]methyl]-2-oxo-1-oxa-3,8-diazaspiro[4.5]decan-3-yl]-4H-pyrazino[2,3-b][1,4]oxazin-3-one] was 0.5 µg/mL (≈ 0.855 µM); that for `CO[C@@H]1CN[C@@H](c2nc3c(F)c4c(c(F)c3[nH]2)CC(CN2CCC3(CC2)CN(c2cnc5c(n2)NC(=O)CO5)C(=O)O3)C4)C1` [Example 37, 6-[8-[[4,8-difluoro-2-[(2R,4S)-4-methoxypyrrolidin-2-yl]-3,5,6,7-tetrahydrocyclopenta[f]benzimidazol-6-yl]methyl]-2-oxo-1-oxa-3,8-diazaspiro[4.5]decan-3-yl]-4H-pyrazino[2,3-b][1,4]oxazin-3-one] was 0.25 µg/mL (≈ 0.409 µM).
On to `CN[C@@H](C)c1nc2c(F)c3c(c(F)c2[nH]1)CC(CN1CCC2(CC1)CN(c1cnc4c(n1)NC(=O)CO4)C(=O)O2)C3` [Example 38, 6-[8-[[4,8-difluoro-2-[(1S)-1-(methylamino)ethyl]-3,5,6,7-tetrahydrocyclopenta[f]benzimidazol-6-yl]methyl]-2-oxo-1-oxa-3,8-diazaspiro[4.5]decan-3-yl]-4H-pyrazino[2,3-b][1,4]oxazin-3-one], for which the MIC was found to be 0.125 µg/mL (≈ 0.22 µM).
The value for `Nc1cnc2c(F)c3c(c(F)c2n1)CC(CN1CCC2(CC1)CN(c1cnc4c(n1)NC(=O)CO4)C(=O)O2)C3` (centres unmarked) [Example 39, 6-[8-[(3-amino-5,9-difluoro-7,8-dihydro-6H-cyclopenta[g]quinoxalin-7-yl)methyl]-2-oxo-1-oxa-3,8-diazaspiro[4.5]decan-3-yl]-4H-pyrazino[2,3-b][1,4]oxazin-3-one] was 0.5 µg/mL (≈ 0.928 µM); that for `CNCCNc1cnc2c(F)c3c(c(F)c2n1)CC(CN1CCC2(CC1)CN(c1cnc4c(n1)NC(=O)CO4)C(=O)O2)C3` (centres unmarked) [Example 40, 6-[8-[[5,9-difluoro-3-[2-(methylamino)ethylamino]-7,8-dihydro-6H-cyclopenta[g]quinoxalin-7-yl]methyl]-2-oxo-1-oxa-3,8-diazaspiro[4.5]decan-3-yl]-4H-pyrazino[2,3-b][1,4]oxazin-3-one] was 0.5 µg/mL (≈ 0.839 µM).
The value for `NCCn1nc2c(F)c3c(c(F)c2n1)CC(CN1CCC2(CC1)CN(c1cnc4c(n1)NC(=O)CO4)C(=O)O2)C3` [Example 41, 6-[8-[[2-(2-aminoethyl)-4,8-difluoro-6,7-dihydro-5H-cyclopenta[f]benzotriazol-6-yl]methyl]-2-oxo-1-oxa-3,8-diazaspiro[4.5]decan-3-yl]-4H-pyrazino[2,3-b][1,4]oxazin-3-one] was at most 0.06 µg/mL.
The result for `NCCn1nnc2c(F)c3c(c(F)c21)CC(CN1CCC2(CC1)CN(c1cnc4c(n1)NC(=O)CO4)C(=O)O2)C3` (centres unmarked) [Example 42, 6-[8-[[1-(2-aminoethyl)-4,8-difluoro-6,7-dihydro-5H-cyclopenta[f]benzotriazol-6-yl]methyl]-2-oxo-1-oxa-3,8-diazaspiro[4.5]decan-3-yl]-4H-pyrazino[2,3-b][1,4]oxazin-3-one] reads at most 0.06 µg/mL; that for `NCCn1c(=O)n(CCN)c2c(F)c3c(c(F)c21)CC(CN1CCC2(CC1)CN(c1cnc4c(n1)NC(=O)CO4)C(=O)O2)C3.O=C(O)C(F)(F)F` [Example 43, 6-[8-[[1,3-bis(2-aminoethyl)-4,8-difluoro-2-oxo-6,7-dihydro-5H-cyclopenta[f]benzimidazol-6-yl]methyl]-2-oxo-1-oxa-3,8-diazaspiro[4.5]decan-3-yl]-4H-pyrazino[2,3-b][1,4]oxazin-3-one; 2,2,2-trifluoroacetic acid], 2 µg/mL.
On to `NCCn1c(=O)[nH]c2c(F)c3c(c(F)c21)CC(CN1CCC2(CC1)CN(c1cnc4c(n1)NC(=O)CO4)C(=O)O2)C3` (centres unmarked) [Example 44, 6-[8-[[1-(2-aminoethyl)-4,8-difluoro-2-oxo-3,5,6,7-tetrahydrocyclopenta[f]benzimidazol-6-yl]methyl]-2-oxo-1-oxa-3,8-diazaspiro[4.5]decan-3-yl]-4H-pyrazino[2,3-b][1,4]oxazin-3-one], for which the minimal inhibitory concentration (MIC) worked out at 0.25 µg/mL (≈ 0.438 µM).
The value for `C[C@@H](N)c1nc2cc3c(c(F)c2[nH]1)CC(CN1CCC2(CC1)CN(c1cnc4c(n1)NC(=O)CO4)C(=O)O2)C3` (stereo partly drawn) [Example 45, 6-[8-[[2-[(1R)-1-aminoethyl]-8-fluoro-1,5,6,7-tetrahydrocyclopenta[f]benzimidazol-6-yl]methyl]-2-oxo-1-oxa-3,8-diazaspiro[4.5]decan-3-yl]-4H-pyrazino[2,3-b][1,4]oxazin-3-one] was 0.125 µg/mL (≈ 0.233 µM).
The result for `O=C(O)C(F)(F)F.O=C1COc2ncc(N3CC4(CCN(CC5Cc6c(c(F)c7[nH]c([C@@H]8C[C@@H](O)CN8)nc7c6F)C5)CC4)OC3=O)nc2N1` [Example 46, 6-[8-[[4,8-Difluoro-2-[(2S,4R)-4-hydroxypyrrolidin-2-yl]-3,5,6,7-tetrahydrocyclopenta[f]benzimidazol-6-yl]methyl]-2-oxo-1-oxa-3,8-diazaspiro[4.5]decan-3-yl]-4H-pyrazino[2,3-b][1,4]oxazin-3-one;2,2,2-trifluoroacetic acid] reads 0.25 µg/mL.
The result for `O=C(O)C(F)(F)F.O=C1COc2ncc(N3CC(CCNCC4Cc5c(c(F)c6[nH]c([C@@H]7C[C@@H](O)CN7)nc6c5F)C4)OC3=O)nc2N1` (stereo partly drawn) [Example 47, 6-[5-[2-[[4,8-difluoro-2-[(2S,4R)-4-hydroxypyrrolidin-2-yl]-3,5,6,7-tetrahydrocyclopenta[f]benzimidazol-6-yl]methylamino]ethyl]-2-oxo-oxazolidin-3-yl]-4H-pyrazino[2,3-b][1,4]oxazin-3-one; 2,2,2-trifluoroacetic acid] reads 2 µg/mL.
Take `O=C(O)C(F)(F)F.O=C1COc2ncc(N3CC4(CCN(CC5Cc6cc7[nH]c([C@@H]8C[C@@H](O)CN8)nc7c(F)c6C5)CC4)OC3=O)nc2N1` (stereo partly drawn) [Example 48, 6-[8-[[8-fluoro-2-[(2S,4R)-4-hydroxypyrrolidin-2-yl]-3,5,6,7-tetrahydrocyclopenta[f]benzimidazol-6-yl]methyl]-2-oxo-1-oxa-3,8-diazaspiro[4.5]decan-3-yl]-4H-pyrazino[2,3-b][1,4]oxazin-3-one; 2,2,2-trifluoroacetic acid]: the minimal inhibitory concentration (MIC) is 0.25 µg/mL.
On to `O=C(O)C(F)(F)F.O=C1COc2ncc(N3CC4(CCN(CC5Cc6c(c(F)c7[nH]c([C@H]8C[C@H](O)CN8)nc7c6F)C5)CC4)OC3=O)nc2N1` [Example 49, 6-[8-[[4,8-difluoro-2-[(2R,4S)-4-hydroxypyrrolidin-2-yl]-3,5,6,7-tetrahydrocyclopenta[f]benzimidazol-6-yl]methyl]-2-oxo-1-oxa-3,8-diazaspiro[4.5]decan-3-yl]-4H-pyrazino[2,3-b][1,4]oxazin-3-one; 2,2,2-trifluoroacetic acid], for which the MIC came out at 0.25 µg/mL.
The result for `O=C(O)C(F)(F)F.O=C1COc2ncc(N3CC4(CCN(CC5Cc6c(c(F)c7[nH]c([C@H]8C[C@@H](O)CN8)nc7c6F)C5)CC4)OC3=O)nc2N1` [Example 50, 6-[8-[[4,8-difluoro-2-[(2R,4R)-4-hydroxypyrrolidin-2-yl]-3,5,6,7-tetrahydrocyclopenta[f]benzimidazol-6-yl]methyl]-2-oxo-1-oxa-3,8-diazaspiro[4.5]decan-3-yl]-4H-pyrazino[2,3-b][1,4]oxazin-3-one; 2,2,2-trifluoroacetic acid] reads 0.25 µg/mL; that for `O=C(O)C(F)(F)F.O=C1COc2ncc(N3CC4(CCN(CC5Cc6c(c(F)c7[nH]c([C@@H]8C[C@H](O)CN8)nc7c6F)C5)CC4)OC3=O)nc2N1` [Example 52, 6-[8-[[4,8-difluoro-2-[(2S,4S)-4-hydroxypyrrolidin-2-yl]-3,5,6,7-tetrahydrocyclopenta[f]benzimidazol-6-yl]methyl]-2-oxo-1-oxa-3,8-diazaspiro[4.5]decan-3-yl]-4H-pyrazino[2,3-b][1,4]oxazin-3-one; 2,2,2-trifluoroacetic acid], 0.5 µg/mL.
The value for `O=C1COc2ncc(N3CC4(CC(NCC5Cc6c(c(F)c7[nH]c([C@H]8C[C@@H](O)CN8)nc7c6F)C5)C4)OC3=O)nc2N1` (stereo partly drawn) [Example 53, 6-[2-[[4,8-difluoro-2-[(2R,4R)-4-hydroxypyrrolidin-2-yl]-3,5,6,7-tetrahydrocyclopenta[f]benzimidazol-6-yl]methylamino]-6-oxo-5-oxa-7-azaspiro[3.4]octan-7-yl]-4H-pyrazino[2,3-b][1,4]oxazin-3-one] was 4 µg/mL (≈ 6.87 µM); that for `O=C(O)C(F)(F)F.O=C1COc2ncc(N3CC4(CCN(CC5Cc6c(c(F)c7[nH]c([C@H]8NCC[C@@H]8O)nc7c6F)C5)CC4)OC3=O)nc2N1` [Example 54, 6-[8-[[4,8-difluoro-2-[(2R,3S)-3-hydroxypyrrolidin-2-yl]-3,5,6,7-tetrahydrocyclopenta[f]benzimidazol-6-yl]methyl]-2-oxo-1-oxa-3,8-diazaspiro[4.5]decan-3-yl]-4H-pyrazino[2,3-b][1,4]oxazin-3-one; 2,2,2-trifluoroacetic acid] was 0.125 µg/mL.
